Data reported in patent US20250122174A1 (Shenzhen Yuanli Shenwan Innovative Medicine Co., Ltd., priority 2022, published 2025).

Target: HPK1 (Homo sapiens (Human), UniProt Q92918)
Experiment: HPK1 Inhibition Assay (ADP-Glo kinase assay)
Assay type: biochemical
Conditions: ATP 10 μM
Method in brief: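 ADP-Glo luminescence read-out after 1 h room-temperature kinase reaction with 10 μM ATP and 0.1 μg/ml MBP. Recombinant human HPK1 at 7.5 ng/μl; buffer 40 mM Tris pH 7.5, 20 mM MgCl2. Compounds serially diluted 5-fold over 10 points from 10 mM DMSO stock.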

Sequence of HPK1 (Q92918 1-346 limits assumed): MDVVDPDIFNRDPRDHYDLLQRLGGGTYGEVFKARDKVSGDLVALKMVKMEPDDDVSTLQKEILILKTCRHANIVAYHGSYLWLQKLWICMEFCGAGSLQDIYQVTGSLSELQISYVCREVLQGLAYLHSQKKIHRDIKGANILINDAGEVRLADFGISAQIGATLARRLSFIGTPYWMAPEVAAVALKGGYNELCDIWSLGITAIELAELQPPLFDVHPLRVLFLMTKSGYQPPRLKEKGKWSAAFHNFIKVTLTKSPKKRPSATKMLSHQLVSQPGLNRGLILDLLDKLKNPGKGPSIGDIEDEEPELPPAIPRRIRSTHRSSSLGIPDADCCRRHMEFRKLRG

SMILES | IC50
CC(C)n1ncc2c(N3C[C@H](N)C4(CC4)C3)c(NC(=O)c3ccc(=O)n(-c4c(F)cccc4F)n3)cc(F)c21 [Example 189, (R)-N-(4-(7-amino-5-azaspiro[2.4]heptan-5-yl)-7-fluoro-1-isopropyl-1H-indazol-5-yl)-1-(2,6-difluorophenyl)-6-oxo-1,6-dihydropyridazine-3-carboxamide] | < 100 nM
Cc1nc2c(N3CCNC4(CC4)C3)c(NC(=O)c3ccc(=O)n(-c4c(F)cccc4F)n3)ccc2n1C [Example 81, 1-(2,6-difluorophenyl)-N-(1,2-dimethyl-4-(4,7-diazaspiro[2.5]octan-7-yl)-1H-benzo[d]imidazol-5-yl)-6-oxo-1,6-dihydropyridazine-3-carboxamide] | < 100 nM
CC[C@@H]1CN(c2c(NC(=O)c3ccc(=O)n(-c4c(F)cccc4F)n3)ccc3c2cnn3C(C)C)C[C@@H]1N (single isomer, unassigned) [Example 196] | < 100 nM
N[C@@H]1CCN(c2c(NC(=O)c3ccc(=O)n(-c4c(F)cccc4F)n3)ccc3c2cnn3C2CCCC2)C1 [Example 287, (R)-N-(4-(3-aminopyrrolidin-1-yl)-1-cyclopentyl-1H-indazol-5-yl)-1-(2,6-difluorophenyl)-6-oxo-1,6-dihydropyridazine-3-carboxamide] | < 100 nM
Cc1nc2c(N3CCC4(CNC4)C3)c(NC(=O)c3ccc(=O)n(-c4c(F)cccc4F)n3)ccc2n1C [Example 85, 1-(2,6-difluorophenyl)-N-(1,2-dimethyl-4-(2,6-diazaspiro[3.4]octan-6-yl)-1H-benzo[d]imidazol-5-yl)-6-oxo-1,6-dihydropyridazine-3-carboxamide] | < 100 nM
Cn1c(C2(C(F)(F)F)CC2)nc2c(N3C[C@H](N)C(C)(C)C3)c(NC(=O)c3ccc(=O)n(-c4c(F)cccc4F)n3)ccc21 [Example 147, (R)-N-(4-(4-amino-3,3-dimethylpyrrolidin-1-yl)-1-methyl-2-(1-(trifluoromethyl)cyclopropyl)-1H-benzo[d]imidazol-5-yl)-1-(2,6-difluorophenyl)-6-oxo-1,6-dihydropyridazine-3-carboxamide] | < 100 nM
C[C@@H]1CN(c2c(NC(=O)c3ccc(=O)n(-c4c(F)cccc4F)n3)ccc3c2cnn3C2COC2)C[C@@H]1N [Example 258, N-(4-((3R,4R)-3-amino-4-methylpyrrolidin-1-yl)-1-(oxetan-3-yl)-1H-indazol-5-yl)-1-(2,6-difluorophenyl)-6-oxo-1,6-dihydropyridazine-3-carboxamide] | < 100 nM
CC(C)n1ncc2c(N3C[C@@H](C)[C@@H](N)C3)c(NC(=O)c3ccc(=O)n(-c4ccccc4F)n3)ccc21 [Example 215, N-(4-((3R,4R)-3-amino-4-methylpyrrolidin-1-yl)-1-isopropyl-1H-indazol-5-yl)-1-(2-fluorophenyl)-6-oxo-1,6-dihydropyridazine-3-carboxamide] | < 100 nM
COc1cccc(F)c1-c1cccc(C(=O)Nc2ccc3c(nc(C)n3C)c2N2CC[C@H](N)C2)[n+]1[O-] [Example 62, 2-((4-((S)-3-aminopyrrolidin-1-yl)-1,2-dimethyl-1H-benzo[d]imidazol-5-yl)carbamoyl)-6-(2-fluoro-6-methoxyphenyl)pyridine 1-oxide] | 100 to 1000 nM
CC(C)c1nc2c(N3CC[C@@](C)(O)C3)c(NC(=O)c3ccc(=O)n(-c4c(F)cccc4F)n3)ccc2n1C [Example 140, (R)-1-(2,6-difluorophenyl)-N-(4-(3-hydroxy-3-methylpyrrolidin-1-yl)-2-isopropyl-1-methyl-1H-benzo[d]imidazol-5-yl)-6-oxo-1,6-dihydropyridazine-3-carboxamide] | < 100 nM
C[C@@H]1CN(c2c(NC(=O)c3ccc(=O)n(-c4c(F)cccc4F)n3)ccc3c2cnn3C2CCCC2)C[C@@H]1N [Example 288, N-(4-((3R,4R)-3-amino-4-methylpyrrolidin-1-yl)-1-cyclopentyl-1H-indazol-5-yl)-1-(2,6-difluorophenyl)-6-oxo-1,6-dihydropyridazine-3-carboxamide34] | < 100 nM
Cc1nc2c(N3C[C@H](N)C(F)(F)C3)c(NC(=O)c3ccc(=O)n(-c4c(F)cccc4F)n3)ccc2n1C [Example 94, (S)-N-(4-(4-amino-3,3-difluoropyrrolidin-1-yl)-1,2-dimethyl-1H-benzo[d]imidazol-5-yl)-1-(2,6-difluorophenyl)-6-oxo-1,6-dihydropyridazine-3-carboxamide] | < 100 nM
Cn1c(-c2ccncc2F)nc2c(N3CC[C@H](N)C3)c(NC(=O)c3ccnn(-c4c(F)cccc4F)c3=O)ccc21 [Example 42, N-{4-[(35)-3-aminopyrrolidin-1-yl]-2-(3-fluoropyridin-4-yl)-1-methyl-1,3-benzodiazol-5-yl}-2-(2,6-difluorophenyl)-3-oxopyridazine-4-carboxamide] | < 100 nM
NC1CCN(c2c(NC(=O)c3ccc(=O)n(-c4c(F)cccc4F)n3)ccc3c2cnn3[C@@H]2CCOC2)CC1 [Example 265, (R)-N-(4-(4-aminopiperidin-1-yl)-1-(tetrahydrofuran-3-yl)-1H-indazol-5-yl)-1-(2,6-difluorophenyl)-6-oxo-1,6-dihydropyridazine-3-carboxamide] | < 100 nM
Cc1nc2c(N3CCC4(CC3)CNC4)c(NC(=O)c3ccc(=O)n(-c4c(F)cccc4F)n3)ccc2n1C [Example 78, 1-(2,6-difluorophenyl)-N-(1,2-dimethyl-4-(2,7-diazaspiro[3.5]nonan-7-yl)-1H-benzo[d]imidazol-5-yl)-6-oxo-1,6-dihydropyridazine-3-carboxamide] | < 100 nM
CC(C)n1cc2c(N3CCC[C@@H](N)C3)c(NC(=O)c3ccc(=O)n(-c4c(F)cccc4F)n3)ccc2n1 [Example 232, (R)-N-(4-(3-aminopiperidin-1-yl)-2-isopropyl-2H-indazol-5-yl)-1-(2,6-difluorophenyl)-6-oxo-1,6-dihydropyridazine-3-carboxamide] | < 100 nM
Cc1nc2c(N3CC[C@H](O)C3)c(NC(=O)c3ccc(=O)n(-c4c(F)cccc4F)n3)ccc2n1C [Example 82, (S)-1-(2,6-difluorophenyl)-N-(4-(3-hydroxypyrrolidin-1-yl)-1,2-dimethyl-1H-benzo[d]imidazol-5-yl)-6-oxo-1,6-dihydropyridazine-3-carboxamide] | < 100 nM
N#Cc1ccncc1-c1ccc(NC(=O)c2ccc(=O)n(-c3c(F)cccc3F)n2)c(N2CC[C@](N)(C(F)(F)F)C2)c1 (single isomer, unassigned) [Example 358] | < 100 nM
N#Cc1ccncc1-c1ccc(NC(=O)c2ccc(=O)n(-c3c(F)cccc3F)n2)c(N2CC[C@@H](N)C2)c1 [Example 343, (R)-N-(2-(3-aminopyrrolidin-1-yl)-4-(4-cyanopyridin-3-yl)phenyl)-1-(2,6-difluorophenyl)-6-oxo-1,6-dihydropyridazine-3-carboxamide] | < 100 nM
C[C@]1(O)CCN(c2cc(-c3cnccc3C#N)ccc2NC(=O)c2ccc(=O)n(-c3c(F)cccc3F)n2)C1 (single isomer, unassigned) [Example 354] | < 100 nM
COCCn1ncc2c(N3C[C@@H](C)[C@@H](N)C3)c(NC(=O)c3ccc(=O)n(-c4c(F)cccc4F)n3)ccc21 [Example 283, N-(4-((3R,4R)-3-amino-4-methylpyrrolidin-1-yl)-1-(2-methoxyethyl)-1H-indazol-5-yl)-1-(2,6-difluorophenyl)-6-oxo-1,6-dihydropyridazine-3-carboxamide] | < 100 nM
Cc1nc2c(N3CC4CNCC4C3)c(NC(=O)c3ccc(=O)n(-c4c(F)cccc4F)n3)ccc2n1C (stereo not shown) [Example 79, 1-(2,6-difluorophenyl)-N-(4-(hexahydropyrrolo[3,4-c]pyrrol-2(1H)-yl)-1,2-dimethyl-1H-benzo[d]imidazol-5-yl)-6-oxo-1,6-dihydropyridazine-3-carboxamide] | < 100 nM
COCc1nc2c(N3CC[C@H](N)C3)c(NC(=O)c3ccnn(-c4c(F)cccc4F)c3=O)ccc2n1C [Example 44, (S)—N-(4-(3-aminopyrrolidin-1-yl)-2-(methoxymethyl)-1-methyl-1H-benzo[d]imidazol-5-yl)-2-(2,6-difluorophenyl)-3-oxo-2,3-dihydropyridazine-4-carboxamide] | < 100 nM
COc1cccc(F)c1-c1nc(C(=O)Nc2cc(F)ccc2N2C[C@@H]3C[C@H]2CN3)cs1 [Example 64, N-(2-((1S,4S)-2,5-diazabicyclo[2.2.1]heptan-2-yl)-5-fluorophenyl)-2-(2-fluoro-6-methoxyphenyl)thiazole-4-carboxamide] | 100 to 1000 nM
COc1cccc(F)c1-c1nccc(C(=O)Nc2ccc3c(nc(C)n3C)c2N2CCC(N)CC2)c1F [Example 8, N-(4-(4-aminopiperidin-1-yl)-1,2-dimethyl-1H-benzo[d]imidazol-5-yl)-3-fluoro-2-(2-fluoro-6-methoxyphenyl)isonicotinamide] | < 100 nM
N#Cc1ccncc1-c1ccc(NC(=O)c2ccc(=O)n(-c3c(F)cccc3F)n2)c(N2CCC(N)(CO)CC2)c1 [Example 352, N-(2-(4-amino-4-(hydroxymethyl)piperidin-1-yl)-4-(4-cyanopyridin-3-yl)phenyl)-1-(2,6-difluorophenyl)-6-oxo-1,6-dihydropyridazine-3-carboxamide] | < 100 nM
CC(C)c1nc2c(N3CC[C@@H](CN)C3)c(NC(=O)c3ccc(=O)n(-c4c(F)cccc4F)n3)ccc2n1C [Example 116, (S)-N-(4-(3-(aminomethyl)pyrrolidin-1-yl)-2-isopropyl-1-methyl-1H-benzo[d]imidazol-5-yl)-1-(2,6-difluorophenyl)-6-oxo-1,6-dihydropyridazine-3-carboxamide] | < 100 nM
C[C@@H]1CN(c2c(NC(=O)c3ccc(=O)n(-c4c(F)cccc4F)n3)ccc3nn(C4CCCC4)cc23)C[C@@H]1N [Example 333, N-(4-((3R,4R)-3-amino-4-methylpyrrolidin-1-yl)-2-cyclopentyl-2H-indazol-5-yl)-1-(2,6-difluorophenyl)-6-oxo-1,6-dihydropyridazine-3-carboxamide] | < 100 nM
